Experimental data published in ChEMBL document CHEMBL1201862, “PubChem BioAssay data set” (2004).
“And” between values parts separate entries of the source, which are not always exact repeats. Equal entries are not always repeated. The source made the active and inactive calls.

test system: not listed separately; experiment: Luminescence Cell-Based Dose Response HTS to Identify Inhibitors of 5'UTR Stem-Loop Driven Prion Protein mRNA Translation in H4 Neuroglioblastoma Cells. [Related pubchem assays: 1827 (Project Summary), 1813 (Primary HTS)]; type: functional; settings: not given

Structure (SMILES)	EC50
COc1cccc(CNc2nc(SC)ncc2CO)c1	27.1 µM (active)
CCOC(=O)c1c(-c2cccs2)csc1NC(=O)CN1CCOCC1	80.6 µM (active)
CCc1ccc(C2=NN(CCC(=O)NC(C)CCc3ccccc3)C(=O)CC2)cc1 (configuration not stated)	23.8 µM (active)
OC(CNCCc1ccccc1)COc1ccc(OCC(O)CNCCc2ccccc2)cc1 (configuration not stated)	> 120 µM (not active)

biological target: Cytochrome P450 2C19 (Homo sapiens, UniProt P33261); experiment: Cytochrome panel assay with activity outcomes. Panel member name: p450-cyp2c19 Compounds with AC50 equal or less than 10 uM are considered active; type: functional; settings: not given
Sequence (P33261 whole entry): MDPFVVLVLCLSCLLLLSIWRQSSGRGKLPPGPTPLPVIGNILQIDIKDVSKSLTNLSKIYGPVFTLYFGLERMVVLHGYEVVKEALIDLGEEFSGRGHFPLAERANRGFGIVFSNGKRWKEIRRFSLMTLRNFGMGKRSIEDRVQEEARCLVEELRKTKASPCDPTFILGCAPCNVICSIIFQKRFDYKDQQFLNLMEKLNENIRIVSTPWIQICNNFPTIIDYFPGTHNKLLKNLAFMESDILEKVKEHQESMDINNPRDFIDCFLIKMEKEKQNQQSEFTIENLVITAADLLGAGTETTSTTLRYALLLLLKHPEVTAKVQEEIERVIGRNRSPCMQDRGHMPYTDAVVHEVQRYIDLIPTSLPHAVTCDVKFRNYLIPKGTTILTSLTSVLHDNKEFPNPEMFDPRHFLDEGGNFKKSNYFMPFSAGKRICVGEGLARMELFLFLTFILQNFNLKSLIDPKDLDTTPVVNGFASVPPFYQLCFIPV

Structure (SMILES)	AC50
CNc1cc(NS(=O)(=O)c2ccc(N)cc2)nc(NC)n1	inconclusive
CN1CCC(=C2c3ccccc3CC(=O)c3sccc32)CC1 [KETOTIFEN]	inconclusive

same assay, conditions: read-out: AC50

Structure (SMILES)	AC50
COC(=O)[C@@H]1C[C@H]1[C@@H](NC(=O)c1cc(C)nn1C)c1ccccc1	39.8 µM (inconclusive)
O=C(Nc1cc2ccccc2oc1=O)C1CCCCC1	28.2 µM (inconclusive)
COC(=O)[C@@]1(Cc2ccc(OC)cc2)[C@H]2c3cc(C(=O)N4CCCC4)n(CCc4ccccn4)c3C[C@H]2CN1C(=O)c1ccccc1	25.1 µM (inconclusive)
O=C1N=C2SCCN2/C1=C\c1c(Cl)cccc1Cl	28.2 µM (inconclusive)
CCOc1ccc(-n2c(=O)[nH]cc(C(=O)N3CCCc4ccccc43)c2=O)cc1	5.01 µM (inconclusive)
COc1ccc(NC(=O)N2CC3(CCN(C(=O)c4c(C)noc4C)CC3)C2)cc1	39.8 µM (inconclusive)
Cc1cc2c(cc1C)NC(c1nc3ccccc3[nH]1)C1=C(O)CC(C)(C)CC1=N2 (configuration not stated)	1.78 µM (inconclusive)
Cc1cc(=O)[nH]c2ccccc12	20 µM (inconclusive)

test system: Streptococcus sp. 'group A'; experiment: Streptococcus pyogenes SK(-)GAS viability under kanamycin – luminescence, BacTiterGlo, confirmation, counter-screen for streptokinase expression inhibitor project, dose response (AID 1900); type: functional, organism-based; settings: not given

Structure (SMILES)	EC50
Clc1ccccc1CN(Cc1ccccc1)c1[nH]cnc2ncnc1-2	5.85 µM (active)
COc1cc(C(=O)Nc2ccc(-c3nc4cc(C)ccc4o3)c(O)c2)cc(OC)c1OC	2.35 µM (active)
COc1cccc(/C=C/C(=O)OCC(=O)Nc2nnc(-c3ccccc3)o2)c1	6.11 µM (active)

test system: not listed separately; experiment: luciferase reporter signal suppression in cells – H4 neuroglioma cells, luminescence, dose response (AID 1990); type: functional, cell-based; settings: not given

Structure (SMILES)	EC50
COc1cccc(CNc2nc(SC)ncc2CO)c1	13.5 µM (active)
CCOC(=O)c1c(-c2cccs2)csc1NC(=O)CN1CCOCC1	20.9 µM (active)
CCc1ccc(C2=NN(CCC(=O)NC(C)CCc3ccccc3)C(=O)CC2)cc1 (configuration not stated)	> 120 µM (not active)
OC(CNCCc1ccccc1)COc1ccc(OCC(O)CNCCc2ccccc2)cc1 (configuration not stated)	9.08 µM (active)

biological target: T1, Heat shock factor protein 1 (Mus musculus, UniProt P38532); experiment: decrease of HSF1-responsive luciferase luminescence – cell-based, NIH3T3, dose retest, confirmation (AID 2382); type: functional; settings: not given;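 further: NIH3T3 fibroblasts with HSF1-driven luciferase reporter stressed by proteasome inhibitor MG132; luminescence from HSF1-driven luciferase expression after 8 hours of MG132 stress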
T1 sequence (P38532 whole entry): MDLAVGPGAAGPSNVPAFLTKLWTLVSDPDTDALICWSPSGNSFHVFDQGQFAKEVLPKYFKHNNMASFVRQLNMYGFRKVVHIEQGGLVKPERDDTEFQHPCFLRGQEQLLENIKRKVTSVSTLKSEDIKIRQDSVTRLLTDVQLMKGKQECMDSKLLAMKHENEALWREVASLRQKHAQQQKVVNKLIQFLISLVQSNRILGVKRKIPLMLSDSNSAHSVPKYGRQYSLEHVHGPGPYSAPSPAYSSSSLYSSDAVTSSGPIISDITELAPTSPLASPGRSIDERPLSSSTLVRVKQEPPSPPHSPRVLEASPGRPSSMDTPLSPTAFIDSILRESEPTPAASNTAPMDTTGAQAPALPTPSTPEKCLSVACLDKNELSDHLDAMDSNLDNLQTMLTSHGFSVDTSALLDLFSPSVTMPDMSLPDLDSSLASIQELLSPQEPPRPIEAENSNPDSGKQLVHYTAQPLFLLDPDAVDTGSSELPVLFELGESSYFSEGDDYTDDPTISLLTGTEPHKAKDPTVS

Structure (SMILES)	EC50
Cc1ccc(C(=N)NOC(=O)CN(C)S(=O)(=O)c2ccc(C)cc2)cc1	> 195 µM (not active)
CN1CCN(C(=O)/C(=C\c2cccs2)NC(=O)c2ccco2)CC1	> 195 µM (not active)
CC(C)CCNC(=O)C1CCCN1C(=O)NC1CCCCC1 (configuration not stated)	> 195 µM (not active)
COc1cccc(C2C(C(=O)c3cc4ccccc4o3)=C(O)C(=O)N2c2cc(C)on2)c1 (configuration not stated)	> 195 µM (not active)
O=C(O)c1ccc(N2C(=O)CC(N3CCN(c4cccc(C(F)(F)F)c4)CC3)C2=O)cc1 (configuration not stated)	> 195 µM (not active)
COc1ccc(CN(C)C(=O)c2cc(S(=O)(=O)N3CCOCC3)ccc2N2CCCC2)cc1	> 195 µM (not active)
Cc1cccc(NC(=O)Cn2c(=O)n(Cc3ccco3)c(=N)c3c4c(sc32)COC(C)(C)C4)c1	> 195 µM (not active)
Cc1ccccc1Cn1ccc(NC(=O)c2cnn3c(C(F)(F)F)cc(-c4ccco4)nc23)n1	19.1 µM (active)
Cc1cc(Cl)ccc1OCCCC(=O)N1CCOCC1	> 195 µM (not active)
CCNC(=O)CNC(=O)c1nn(Cc2ccccc2)c(=O)c2ccccc12	> 195 µM (not active)
COc1ccc(CNC(=O)c2cnc3scc(C)n3c2=O)cc1	> 195 µM (not active)
O=C1SCC(c2ccccc2)=NN1Cc1ccccc1	> 195 µM (not active)

test system: not listed separately; experiment: alpha-synuclein stem-loop luciferase translation blockers – H4 neuroglioma cells, luminescence, confirmation (AID 1988); type: functional, cell-based; settings: not given

Structure (SMILES)	EC50
COc1cccc(CNc2nc(SC)ncc2CO)c1	> 120 µM (not active)
CCOC(=O)c1c(-c2cccs2)csc1NC(=O)CN1CCOCC1	> 120 µM (not active)
CCc1ccc(C2=NN(CCC(=O)NC(C)CCc3ccccc3)C(=O)CC2)cc1 (configuration not stated)	119 µM (active)
OC(CNCCc1ccccc1)COc1ccc(OCC(O)CNCCc2ccccc2)cc1 (configuration not stated)	8.27 µM (active)

test system: Streptococcus; experiment: GAS UMAA2166 growth inhibition – luminescence, BacTiterGlo, counter-screen for streptokinase expression inhibitor project, dose response (AID 1915); type: functional, organism-based; settings: not given;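 further: potency for reduction of bacterial viability or growth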

Structure (SMILES)	EC50
Clc1ccccc1CN(Cc1ccccc1)c1[nH]cnc2ncnc1-2	> 150 µM (not active)
COc1cc(C(=O)Nc2ccc(-c3nc4cc(C)ccc4o3)c(O)c2)cc(OC)c1OC	1.85 µM (active)
COc1cccc(/C=C/C(=O)OCC(=O)Nc2nnc(-c3ccccc3)o2)c1	11.1 µM (active)

test system: not listed separately; experiment: Trypanosoma cruzi growth suppression in host cells – NIH3T3 host cells, beta-gal luminescence, confirmation (AID 2044); type: functional, cell-based; settings: not given;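 further: intracellular parasites grown in NIH/3T3 mouse fibroblasts as host cells; luminescent beta-galactosidase reporter signal from transgenic T. cruzi replicating inside host cells; inhibitors lower the luminescence signal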

Structure (SMILES)	EC50
O=S(=O)(c1ccc(Cl)cc1)N1CCCCC1c1cccnc1 (configuration not stated)	0.838 µM (active)
CC(C)(O)C#Cc1ccc(CN2CCCC(CO)(Cc3cccc(Cl)c3)C2)cc1 (configuration not stated)	0.455 µM (active)
Cc1ccc(-n2cc(CN3CCC(O)(c4ccccn4)CC3)c(-c3ccc(F)cc3)n2)cc1	3.61 µM (active)
O=C(Cn1cnc([N+](=O)[O-])c1)Nc1cc(Oc2ccc(Cl)cc2Cl)cc([N+](=O)[O-])c1	1.11 µM (active)
O=C(Nc1ccccc1)c1ccc(Nc2c([N+](=O)[O-])cc([N+](=O)[O-])c3ccccc23)cc1	0.622 µM (active)
Cc1ccc(Nc2nc(-c3cccnc3)cs2)cc1Cl	2.13 µM (active)
COC(=O)c1ccc(NC(=S)N(Cc2cccnc2)Cc2ccco2)cc1	0.534 µM (active)
CCOc1ccc(C(=O)C[n+]2cccc3cc(C)ccc32)cc1	4.12 µM (active)
CCc1ccc(CN2CCCC(C(=O)c3sccc3C)C2)o1 (configuration not stated)	0.159 µM (active)
O=C(Nn1c(-c2ccncc2)nc2ccccc2c1=O)c1ccc(Br)cc1	0.75 µM (active)
Cc1ccc(OCCCCNC2CCCCC2)c(C)c1	1.62 µM (active)
COc1ccc(-c2nc(CN3CCCCC3c3cccnc3)c(C)o2)c(F)c1 (configuration not stated)	1.45 µM (active)

test system: INS1; experiment: INS-1E survival protection against cytokine death – cell-based, luminescence, retest, dose response (AID 449756); type: functional; settings: Rattus norvegicus;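 further: cell death triggered by IL-1 beta plus TNF-alpha plus IFN-gamma mixture; protective hits raise ATP signal compared with cytokine alone wells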

Structure (SMILES)	AC50
O=C(Nc1cccnc1)c1cccnc1	7.3 µM (active)
COc1cccc(-c2nc(-c3ccc(NC(=O)c4cccnc4)cc3)no2)c1	1.33 µM (active)
Fc1cc(F)c2nc(Nc3nc4c(F)cccc4s3)sc2c1	4.34 µM (active)

biological target: T2, Cytochrome P450 1A2 (Homo sapiens, UniProt P05177); settings: not given;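 further: PubChem cytochrome P450 panel assay, CYP1A2 panel member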
T2 sequence (P05177 whole entry): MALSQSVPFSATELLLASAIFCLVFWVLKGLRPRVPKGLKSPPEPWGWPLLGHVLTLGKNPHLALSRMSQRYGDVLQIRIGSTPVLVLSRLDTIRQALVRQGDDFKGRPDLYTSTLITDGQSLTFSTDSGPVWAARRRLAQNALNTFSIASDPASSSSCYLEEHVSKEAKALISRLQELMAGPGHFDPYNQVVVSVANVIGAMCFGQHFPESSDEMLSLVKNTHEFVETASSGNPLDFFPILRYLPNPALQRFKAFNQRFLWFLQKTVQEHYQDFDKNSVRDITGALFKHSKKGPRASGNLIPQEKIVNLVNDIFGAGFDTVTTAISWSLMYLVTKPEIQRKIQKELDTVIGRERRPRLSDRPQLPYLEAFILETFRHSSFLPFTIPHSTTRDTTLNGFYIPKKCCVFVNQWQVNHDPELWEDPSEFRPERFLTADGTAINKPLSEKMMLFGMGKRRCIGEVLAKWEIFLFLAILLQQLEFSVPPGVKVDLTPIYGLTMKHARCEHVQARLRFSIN

Structure (SMILES)	AC50
N=C(N)SCCSC(=N)N	2 µM (inconclusive)
CCN(c1ccccc1)c1cc(NC)[n+](C)c(C)n1	31.6 µM (inconclusive)
C[C@@H](C(=O)NCCc1c[nH]c2ccccc12)[C@@H]1C[C@@]1(C)[C@@H](NC(=O)OCc1ccccc1)c1ccccc1	12.6 µM (inconclusive)
O=C(Nc1cc2ccccc2oc1=O)C1CCCCC1	2.51 µM (inconclusive)
C[C@@H](C(=O)NCc1ccccn1)[C@H]1C[C@]1(C)[C@H](NC(=O)OCc1ccccc1)c1ccccc1	25.1 µM (inconclusive)
COc1cccc(NC(=O)c2oc3ccccc3c2NC(=O)c2ccc3c(c2)OCO3)c1	6.31 µM (inconclusive)
CCOC(=O)c1ccc(Cl)c(NC(=O)c2ccc(-c3ccccc3)cc2)c1	28.2 µM (inconclusive)
Cn1nnnc1SCc1ccccc1[N+](=O)[O-]	15.8 µM (inconclusive)
Cc1cc2c(cc1C)NC(c1nc3ccccc3[nH]1)C1=C(O)CC(C)(C)CC1=N2 (configuration not stated)	25.1 µM (inconclusive)
CC1(C)Oc2ccc(C#N)cc2[C@H](N2CCCC2=O)[C@H]1O [(-)-CROMAKALIM]	10 µM (inconclusive) and 20 µM (inconclusive)

test system: not listed separately; experiment: NIH3T3 cell viability loss – ATP luminescence, mouse fibroblasts, counter-screen, dose response (AID 2010); type: functional, cell-based; settings: not given;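 further: cells exposed to compound for about 90 hours before reading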

Structure (SMILES)	EC50
O=S(=O)(c1ccc(Cl)cc1)N1CCCCC1c1cccnc1 (configuration not stated)	> 60 µM (not active)
CC(C)(O)C#Cc1ccc(CN2CCCC(CO)(Cc3cccc(Cl)c3)C2)cc1 (configuration not stated)	> 60 µM (not active)
Cc1ccc(-n2cc(CN3CCC(O)(c4ccccn4)CC3)c(-c3ccc(F)cc3)n2)cc1	9.48 µM (active)
O=C(Cn1cnc([N+](=O)[O-])c1)Nc1cc(Oc2ccc(Cl)cc2Cl)cc([N+](=O)[O-])c1	> 60 µM (not active)
O=C(Nc1ccccc1)c1ccc(Nc2c([N+](=O)[O-])cc([N+](=O)[O-])c3ccccc23)cc1	> 60 µM (not active)
Cc1ccc(Nc2nc(-c3cccnc3)cs2)cc1Cl	> 60 µM (not active)
COC(=O)c1ccc(NC(=S)N(Cc2cccnc2)Cc2ccco2)cc1	> 30 µM (not active)
CCOc1ccc(C(=O)C[n+]2cccc3cc(C)ccc32)cc1	> 30 µM (not active)
CCc1ccc(CN2CCCC(C(=O)c3sccc3C)C2)o1 (configuration not stated)	16.9 µM (active)
O=C(Nn1c(-c2ccncc2)nc2ccccc2c1=O)c1ccc(Br)cc1	> 60 µM (not active)
Cc1ccc(OCCCCNC2CCCCC2)c(C)c1	> 60 µM (not active)
COc1ccc(-c2nc(CN3CCCCC3c3cccnc3)c(C)o2)c(F)c1 (configuration not stated)	> 60 µM (inconclusive)
